A short description of data set [1]: Toxicity in NOD.CB17-Prkdcscid/NCrCrl mouse xenografted with TMZ-resistant patient-derived human GBM cells at 5 to 15 mg/kg, ip treated twice per week in presence of Tazemetostat. The data set is classed as organism-based. Conditions: in vivo, dose 5-15 mg/kg. (In general: Xenograft models place foreign cells or tissue in a host animal.)
The subject of the next data set is GBM. As to the kind of experiment: Antitumor activity against TMZ-resistant patient-derived human GBM cells xenografted in NOD.CB17-Prkdcscid/NCrCrl mouse assessed as reduction in tumor growth at 5 to 15 mg/kg, ip treated twice per week in presence of Tazemetostat. The data set is classed as functional, organism-based. Conditions: dose 5-15 mg/kg.

Activity calls are given as the source filed them. The rule behind the calls is not given here.

`CC(C)c1cc(-c2n[nH]c(=O)n2-c2ccc3c(ccn3C)c2)c(O)cc1O` [GANETESPIB]: in data set [1], the Activity entry is on record as “Toxic”. Moreover, in the data set on GBM, the outcome was Active.

For the origin of these results see ChEMBL document CHEMBL5385913, “First-in-Class Dual EZH2-HSP90 Inhibitor Eliciting Striking Antiglioblastoma Activity In Vitro and In Vivo” (J Med Chem, 2024).
